Results from the NIST ThermoML archive (doi:10.1016/j.jct.2016.09.010).
± gives the expanded uncertainty stated by the source.

Test: xn = mol fraction of the nth substance listed
Conditions: 100 kPa, Liquid; for speed of sound: Frequency=2 MHz, Linear variable-path acoustic interferometer; for mass density: Vibrating tube method

CCOC(=O)C(C)O (stereo not drawn) [DL-ethyl lactate] + Nc1ccccc1
Conditions	mass density, 303.15 K [kg/m3]	mass density, 308.15 K [kg/m3]	mass density, 313.15 K [kg/m3]	mass density, 318.15 K [kg/m3]	speed of sound, 303.15 K [m/s]	speed of sound, 308.15 K [m/s]	speed of sound, 313.15 K [m/s]	speed of sound, 318.15 K [m/s]
x1 = 0.0788	1014.12 ± 2	1010.12 ± 2	1005.75 ± 2	1001.3 ± 2	1588.7 ± 1.8	1570.3 ± 1.8	1550.3 ± 1.7	1531.4 ± 1.7
x1 = 0.1638	1015.39 ± 2	1011.23 ± 2	1006.72 ± 2	1002.15 ± 2	1560.8 ± 1.8	1542.5 ± 1.8	1522.7 ± 1.8	1504 ± 1.8
x1 = 0.2514	1016.56 ± 2	1012.23 ± 2	1007.57 ± 2	1002.88 ± 2	1531.4 ± 1.8	1513.2 ± 1.8	1493.5 ± 1.8	1474.8 ± 1.8
x1 = 0.3445	1017.64 ± 2	1013.15 ± 2	1008.36 ± 2	1003.55 ± 2	1499.5 ± 1.9	1481.4 ± 1.9	1461.8 ± 1.9	1443.2 ± 1.9
x1 = 0.4393	1018.65 ± 2	1014 ± 2	1009.09 ± 2	1004.17 ± 2	1466.5 ± 2	1448.5 ± 1.9	1429 ± 1.9	1410.5 ± 1.9
x1 = 0.5461	1019.69 ± 2	1014.87 ± 2	1009.83 ± 2	1004.79 ± 2	1428.6 ± 2	1410.8 ± 2	1391.4 ± 2	1373.1 ± 2
x1 = 0.6484	1020.59 ± 2	1015.62 ± 2	1010.46 ± 2	1005.31 ± 2	1391.7 ± 2.1	1374.1 ± 2.1	1354.9 ± 2.1	1336.8 ± 2.1
x1 = 0.7644	1021.47 ± 2.1	1016.33 ± 2.1	1011.05 ± 2.1	1005.79 ± 2.1	1349.3 ± 2.2	1331.9 ± 2.2	1312.9 ± 2.2	1295 ± 2.2
x1 = 0.8737	1022.17 ± 2.1	1016.88 ± 2.1	1011.49 ± 2.1	1006.13 ± 2.1	1308.3 ± 2.4	1291.1 ± 2.3	1272.3 ± 2.3	1254.7 ± 2.3
x1 = 1	1022.88 ± 2.2	1017.39 ± 2.1	1011.83 ± 2.1	1006.31 ± 2.1	1261.1 ± 2.5	1243.8 ± 2.5	1224.8 ± 2.5	1206.9 ± 2.5

CCNc1ccccc1 [N-ethylaminobenzene] + CCOC(=O)C(C)O
Conditions	mass density, 303.15 K [kg/m3]	mass density, 308.15 K [kg/m3]	mass density, 313.15 K [kg/m3]	mass density, 318.15 K [kg/m3]	speed of sound, 303.15 K [m/s]	speed of sound, 308.15 K [m/s]	speed of sound, 313.15 K [m/s]	speed of sound, 318.15 K [m/s]
x2 = 0	952.41 ± 2	947.69 ± 2	942.95 ± 2	938.23 ± 2	1497 ± 1.7	1481 ± 1.7	1464 ± 1.7	1448 ± 1.6
x2 = 0.1195	960.29 ± 2	955.52 ± 2	950.71 ± 2	945.92 ± 2	1471.1 ± 1.7	1455.4 ± 1.7	1438.5 ± 1.7	1422.6 ± 1.7
x2 = 0.2183	966.93 ± 2	962.08 ± 2	957.2 ± 2	952.34 ± 2	1449.5 ± 1.8	1433.6 ± 1.8	1416.6 ± 1.7	1400.6 ± 1.7
x2 = 0.3177	973.69 ± 2	968.76 ± 2	963.8 ± 2	958.86 ± 2	1427.2 ± 1.8	1411.2 ± 1.8	1394 ± 1.8	1377.7 ± 1.8
x2 = 0.424	981.03 ± 2	976.02 ± 2	970.97 ± 2	965.95 ± 2	1402.7 ± 1.9	1386.6 ± 1.9	1369.2 ± 1.9	1352.7 ± 1.9
x2 = 0.5225	987.95 ± 2	982.86 ± 2	977.73 ± 2	972.63 ± 2	1379.6 ± 2	1363.4 ± 2	1345.8 ± 2	1329.1 ± 2
x2 = 0.6209	994.95 ± 2	989.79 ± 2	984.58 ± 2	979.4 ± 2	1355.9 ± 2.1	1339.6 ± 2.1	1321.8 ± 2.1	1305 ± 2.1
x2 = 0.726	1002.55 ± 2.1	997.31 ± 2.1	992.01 ± 2	986.75 ± 2	1330 ± 2.2	1313.6 ± 2.2	1295.6 ± 2.2	1278.6 ± 2.2
x2 = 0.8128	1008.91 ± 2.1	1003.61 ± 2.1	998.24 ± 2.1	992.91 ± 2.1	1308.3 ± 2.3	1291.7 ± 2.3	1273.6 ± 2.3	1256.4 ± 2.3
x2 = 0.9074	1015.91 ± 2.1	1010.52 ± 2.1	1005.09 ± 2.1	999.68 ± 2.1	1284.5 ± 2.4	1267.6 ± 2.4	1249.2 ± 2.4	1231.8 ± 2.4

CNc1ccccc1 [N-methylaniline] + CCOC(=O)C(C)O
Conditions	mass density, 303.15 K [kg/m3]	mass density, 308.15 K [kg/m3]	mass density, 313.15 K [kg/m3]	mass density, 318.15 K [kg/m3]	speed of sound, 303.15 K [m/s]	speed of sound, 308.15 K [m/s]	speed of sound, 313.15 K [m/s]	speed of sound, 318.15 K [m/s]
x2 = 0	978.2 ± 2	973.53 ± 2	969.92 ± 2	964.9 ± 2	1547 ± 1.7	1526.9 ± 1.7	1511 ± 1.7	1491.4 ± 1.7
x2 = 0.1018	983.17 ± 2	978.45 ± 2	974.67 ± 2	969.62 ± 2	1520.1 ± 1.7	1500.8 ± 1.7	1485 ± 1.7	1466.1 ± 1.7
x2 = 0.1939	987.58 ± 2	982.78 ± 2	978.81 ± 2	973.71 ± 2	1495.5 ± 1.7	1476.5 ± 1.7	1460.5 ± 1.7	1441.7 ± 1.7
x2 = 0.2814	991.69 ± 2	986.81 ± 2	982.67 ± 2	977.52 ± 2	1471.8 ± 1.8	1452.9 ± 1.8	1436.6 ± 1.8	1417.8 ± 1.8
x2 = 0.3934	996.86 ± 2	991.88 ± 2	987.51 ± 2	982.3 ± 2	1440.7 ± 1.9	1422.1 ± 1.9	1405.4 ± 1.8	1386.7 ± 1.8
x2 = 0.491	1001.27 ± 2	996.21 ± 2	991.65 ± 2	986.39 ± 2	1413.1 ± 1.9	1394.7 ± 1.9	1377.7 ± 1.9	1359.2 ± 1.9
x2 = 0.5902	1005.66 ± 2	1000.52 ± 2	995.77 ± 2	990.46 ± 2	1384.5 ± 2	1366.4 ± 2	1349.1 ± 2	1330.8 ± 2
x2 = 0.6894	1009.96 ± 2	1004.74 ± 2	999.8 ± 2	994.45 ± 2	1355.5 ± 2.1	1337.7 ± 2.1	1320.1 ± 2.1	1302 ± 2.1
x2 = 0.7851	1014.03 ± 2.1	1008.74 ± 2.1	1003.62 ± 2.1	998.22 ± 2.1	1326.8 ± 2.2	1309.5 ± 2.2	1291.7 ± 2.2	1273.8 ± 2.2
x2 = 0.8937	1018.56 ± 2.1	1013.19 ± 2.1	1007.86 ± 2.1	1002.41 ± 2.1	1293.5 ± 2.4	1276.4 ± 2.4	1258.3 ± 2.4	1240.7 ± 2.3
